Here are results for four compounds from article PMC9101764, “Synthesis and In Vitro Characterization of Selective Cannabinoid CB2 Receptor Agonists: Biological Evaluation against Neuroblastoma Cancer Cells” (Molecules, 2022).

Data set [1] deals with T1, hCB2R (Homo sapiens, UniProt P34972).
T1 construct: host or cells: HitHunter CHO-K1 cells
The data set can be described thus: PathHunter β-arrestin2 recruitment assay in CHO cells. The data set is classed as cell-based. The protocol: Compounds FG158a, FG160a, FG161a, and LV62 were also evaluated for their ability to recruit β-arrestin2, since G protein-coupled receptors also interact with β-arrestin, which facilitates receptor internalization, recycling, degradation, and signaling.
(§1) CHO cells stably expressing hCB1R or hCB2R were maintained at 37 °C and 5% CO2 in Gibco Ham’s F-12 nutrient mix (Fisher Scientific, Loughborough, UK ) supplemented with 2 mM L-glutamine, 10% fetal bovine serum (FBS), 0.6% penicillin−streptomycin (Fisher Scientific, Loughborough UK), and the disulfate salt of geneticin (G418) as previously described (Sigma-Aldrich, Poole, UK). For subsequent radioligand displacement assays, membranes were prepared by scraping cells from flasks, centrifuging the cells, and storing the cell pellet at −20 °C. When required for us, cell pellets were defrosted and diluted in tris buffer (50 mM Tris-HCl and 50 mM Tris-base). As we have described in previous studies, HitHunter (cAMP) and PathHunter (βarrestin2) CHO-K1 cells stably expressing hCB1R or hCB2R from DiscoveRx® (Eurofins, Fremont, CA, USA) were maintained at 37 °C, 5% CO2 in F-12 DMEM containing 10% FBS and 1% Pen/Strep with 800 µg/mL geneticin (HitHunter) or 800 µg/mL G418 and 300 µg/mL hygromycin B (PathHunter).
The quantification of β-arrestin2 recruitment using the DiscoveRx PathHunter assay has been described by our group previously and is summarized here.. Twenty thousand cells/well were grown overnight in Opti-MEM containing 1% FBS at 37 °C and 5% CO2 in low-volume 96 well plates. The next day, cells were treated with compounds for 90 min at 37 °C. Detection solution was added to cells according to the manufacturer’s directions (DiscoveRx) and cells were stored for 60 min at room temperature. After this incubation, chemiluminescence was quantified on a Cytation5 plate reader (top read, gain 200, integration time 10,000 ms).
(§2) Estimates of Ki, EC50, and Emax were determined using non-linear regression three-parameters (GraphPad, Prism, v. 9.0).
(§3) Data are fitted to a non−linear regression (three parameter model, GraphPad v. 9.0). Data are mean ± S.E.M. of 6 independent experiments performed in triplicate.

The test system of data set [2] is SH-SY5Y cells. The data set can be described thus: Sulforhodamine B (SRB) cell viability assay. The data set is classed as cell-based, human. To be noted: for effect on cell viability: 24 h, 48 h and 72 h, 2.5–40 µM; for IC50: Homo sapiens, 72 h of treatment, SRB, cis/trans mixture. The protocol: We tested the anti-proliferative activity of the novel CB2R agonists FG158a, FG160a, FG161a, and LV62 in neuroblastoma cell lines (Figure 4). The compounds were assayed as a mixture of cis and trans isomers. […] After 72 h of treatment, the effect was higher and could also be observed at lower concentrations. The inhibitory effect was confirmed in another neuroblastoma cell line, SK-N-BE cells.
Human neuroblastoma SHSY5Y and SK-N-BE cell lines were grown in DMEM (GIBCO, Paisley, UK) and MEM (Sigma-Aldrich, St.Louis, MO, USA), respectively, supplemented with 2 mM l-glutamine, […], 50 units/mL penicillin and 10% heat-inactivated fetal bovine serum (FBS) in a humidified atmosphere (5% CO2 at 37 °C). Cells were detached as previously described with 0.25% trypsin (Sigma-Aldrich) at 70–80% confluence.
(§4) Cells seeded for 24 h in triplicate in 96-well plates at a density of 8000 cells/well were left to adhere overnight. CB2R agonists were added to the culture in triplicate at concentrations ranging from 2.5–40 µM. After 24 h, 48 h, and 72 h, cells were fixed, shaking for 2 h at 4 °C with 50% v/v trichloroacetic acid and washed with distilled water. Cells left overnight to dry were stained with 0.4% w/v SRB in 1% v/v acetic acid (at room temperature for 30 min on a shaker) and then washed with 1% acetic acid to allow for the removal of the unbound dye. TRIS-HCl 10 mM, pH 7.4 was added to the cells and absorbance was measured at 495 nm as previously shown using a Glomax® Discover Microplate Reader (Promega, Madison, WI, USA). In combinatory assays, similar procedures were adopted and the CB2R antagonist SR144528 (1 µM) was added 1 h before the CB2 agonists (10, 20 and 40 µM) to SHSY5Y cells that were harvested as described above after 72 h of incubation.
Figure 4 Inhibition of cell viability. The effect on cell viability by CB2R agonists was determined by sulforhodamine B (SRB) assays in SH-SY5Y and SK-N-BE cell lines. SH-SY5Y cells were treated with the compounds indicated in the figure for 24 h (A), 48 h (B), and 72 h (C) at the concentrations reported in the histograms. SK-N-BE cells were treated with the same compounds for 72 h (D). Figures report cell viability (mean of at least 3 independent experiments ± SEM) as percent of cell survival vs. untreated cells (considered as 100% of survival). […] The statistical significance was calculated with two-way ANOVA using Dunnett’s multiple comparisons test.

Data set [3] has as its target T1, hCB2R. The data set can be described thus: HitHunter cAMP assay: inhibition of FSK-stimulated cAMP accumulation in CHO cells. To be noted: for modulation of cAMP response: CHO cells expressing hCB2R. It counts as cell-based. The protocol: For the cAMP inhibition assay, cells were treated with 10 μM FSK and synthetized compounds for 90 min to assess compound concentration-dependent activity.
as §1
The quantification of FSK-stimulated cAMP accumulation using the DiscoveRx HitHunter assay (DiscoveRx, Eurofins, Fremont, CA, USA) has been described in detail previously elsewhere. Briefly, 20,000 cells/well were plated in low-volume 96-well plates and incubated overnight in Opti-MEM with 1% FBS at 37 °C and 5% CO2. The next day, the media were replaced with cell assay buffer (DiscoveRx). Immediately after this, the cells were simultaneously treated with 10 µM FSK and ligands for 90 min. Subsequent additions of cAMP antibody solution and cAMP working detection solutions followed the manufacturer’s directions (DiscoveRx) and cells were stored for 60 min at room temperature. cAMP solution A (DiscoveRx) was added according to the manufacturer’s directions followed by another 60 min room temperature incubation prior to chemiluminescence being measured on a Cytation5 plate reader (top read, gain 200, integration time 10,000 ms).
as §2, §3

The target of a further data set is T2, hCB1R (Homo sapiens, UniProt P21554).
T2 construct: expressed in transfected cells; host or cells: CHO cells (membranes)
Briefly: [3H]CP55,940 radioligand displacement assay, CHO cell membranes. The data set is classed as binding. As to conditions: for displacement of [3H]CP55,940 at hCB1R: CHO membranes, 0.1 nM-10 μM compounds. The protocol: as §1
(§5) We have previously described radioligand displacement assays in detail. […] Binding reactions were terminated by ice-cold tris binding buffer and subsequent vacuum filtration (24-well sampling manifold (Brandel cell harvester; Brandel Inc., Gaithersburg, MD, USA)) using Brandel GF/B filters soaked in wash buffer at 4 °C for at least 24 h. Filters were washed with 1.2 mL of tris-binding buffer six times, then oven-dried for 60 min before being incubated in 3 mL of scintillation fluid (Ultima Gold XR, PerkinElmer, Seer Green, Buckinghamshire, UK). Radioactivity was quantified by liquid scintillation spectrometry. All compounds were first prepared at 10 mM solutions in DMSO. The final vehicle concentration for assays was 0.1% DMSO. All assays were performed in duplicate.
as §2

Data set [4] addresses T1, hCB2R. The data set is described as above. The data set is classed as binding. As to conditions: for displacement of [3H]CP55,940 at hCB2R: CHO membranes, 0.1 nM-10 μM compounds. The protocol:
as §1, §5, §2

In data set [5] the test system is SH-SY5Y cells. Also noted: method as in PMID 26842917. To be noted: presumably via a CB2R-independent mechanism; cited from earlier work.
In data set [6] the test system is SH-SY5Y cells. The data set can be described thus: SRB cell viability assay with pre-incubation of CB2R antagonist SR144528. The data set is classed as cell-based, human. To be noted: SR144528 1 µM added 1 h before, 72 h, agonists at 10, 20 and 40 µM. The protocol: To address a CB2R-mediated mechanism, we tested FG158a, LV62, and FG160a at inhibitory concentrations in SH-SY5Y cells pre-incubated with the CB2R antagonist SR144528. After 72 h of treatment, we observed a reversion in cell viability at 20 and 40 µM of FG158a and FG160a in the presence of SR144528. The inhibitory effect of LV62 was reverted only at 40 µM (Figure 5).
as §4, with “In combinatory assays, similar procedures were adopted and the CB2R antagonist SR144528 (1 µM) was added 1 h before the CB2 agonists (10, 20 and 40 µM) to SHSY5Y cells that were harvested as described above after 72 h of incubation.” left out
Figure 5 CB2R–mediated effect on cell viability. […] Figures (A–C) report cell viability (mean of 3 independent experiments) expressed as absorbance (Abs). The statistical significance was calculated with two-way ANOVA using Tukey’s multiple comparisons test (* p ≤ 0.05).

Where [7] appears, read: CHO cells expressing human CB2R, 90 min.
Setting [8] is: CHO cells expressing human CB2R, 10 μM FSK, 90 min.

Structures are written as SMILES. Read-outs that look alike come from different tables or passages of the source.

T2 sequence (P21554 whole entry): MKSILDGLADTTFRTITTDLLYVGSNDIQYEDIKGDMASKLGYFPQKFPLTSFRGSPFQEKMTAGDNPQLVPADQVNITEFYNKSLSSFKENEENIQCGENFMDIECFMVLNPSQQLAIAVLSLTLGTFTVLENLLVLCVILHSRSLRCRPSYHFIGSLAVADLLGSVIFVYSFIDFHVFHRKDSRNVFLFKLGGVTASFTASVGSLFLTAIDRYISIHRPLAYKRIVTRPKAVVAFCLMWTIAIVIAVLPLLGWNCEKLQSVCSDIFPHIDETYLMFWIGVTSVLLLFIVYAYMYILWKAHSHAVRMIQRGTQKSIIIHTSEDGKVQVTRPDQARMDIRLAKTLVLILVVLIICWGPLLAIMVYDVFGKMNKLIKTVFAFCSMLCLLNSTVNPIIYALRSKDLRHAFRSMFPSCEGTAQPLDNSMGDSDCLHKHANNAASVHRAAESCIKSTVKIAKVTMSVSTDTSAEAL
T1 sequence (P34972 whole entry): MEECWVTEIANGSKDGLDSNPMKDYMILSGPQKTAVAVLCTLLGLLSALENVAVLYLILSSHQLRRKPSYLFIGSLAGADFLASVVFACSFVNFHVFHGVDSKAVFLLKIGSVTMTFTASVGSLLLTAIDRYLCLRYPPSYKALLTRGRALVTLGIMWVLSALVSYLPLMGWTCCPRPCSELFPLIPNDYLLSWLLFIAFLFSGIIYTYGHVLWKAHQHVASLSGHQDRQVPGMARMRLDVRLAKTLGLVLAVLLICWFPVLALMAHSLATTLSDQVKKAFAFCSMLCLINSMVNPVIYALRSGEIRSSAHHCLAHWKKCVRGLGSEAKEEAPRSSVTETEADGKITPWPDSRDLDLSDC

With `CC1CCC(NC(=O)c2cc3cccnc3n(CCCCCCl)c2=O)CC1` (stereo not drawn) [FG160a, 1-(5-chloropentyl)-N-(4-methylcyclohexyl)-2-oxo-1,2-dihydro-1,8-naphthyridine-3-carboxamide], the melting point fell in the range of 124 to 126 °C. In addition, the half-maximal effective concentration (EC50) on hCB2R [1] was more than 10000 nM. The “β-Arrestin2 Recruitment Emax (% CP55,940) ± S.E.M” value at hCB2R [1] (setting [7]) is listed as 41 ± 1.0 % CP55,940. In addition, in the data set with SH-SY5Y cells [2], the “effect on cell viability” value is given as “inhibited cell viability” and the 50% inhibitory concentration (IC50) amounted to 13200 nM. At hCB2R [3], this compound registered a concentration giving a half-maximal response (EC50) of 600 nM. Further, at hCB2R [3] (10 μM FSK, 90 min), the “modulation of cAMP response” value was “able to modulate the cAMP response”. Also, the “cAMP Inhibition Emax (% CP55,940) ± S.E.M” value at hCB2R [3] (setting [8]) is reported as 90 ± 3.1 % CP55,940. At hCB1R, the Ki is more than 10000 nM and the “displacement of [3H]CP55,940 at hCB1R” value is “not able to displace [^3H]CP55,940”. Moreover, on hCB2R [4], the Ki stood at 16.5 nM and the “displacement of [3H]CP55,940 at hCB2R” value is “fully displaced [^3H]CP55,940”.

In the case of `CC1CCC(NC(=O)c2cc3cccnc3n(CCCCCN=[N+]=[N-])c2=O)CC1` (stereo not drawn) [FG161a, 1-(5-azidopentyl)-N-(4-methylcyclohexyl)-2-oxo-1,2-dihydro-1,8-naphthyridine-3-carboxamide], the melting point lay within 115 to 117 °C. The “β-Arrestin2 Recruitment Emax (% CP55,940) ± S.E.M” value at hCB2R [1] (setting [7]) is 47 ± 1.8 % CP55,940. At hCB2R [1] (CHO cells expressing human CB2R, 90 min, read-out: β-Arrestin2 Recruitment EC50 (95% C.I.)), the half-maximal effective concentration (EC50) was more than 10000 nM. In the data set on SH-SY5Y cells [2], the “effect on cell viability” value is listed as “inhibited cell viability” and the IC50 was determined as 27500 nM. Besides, the “modulation of cAMP response” value on hCB2R [3] (10 μM FSK, 90 min) is on record as “able to modulate the cAMP response”. In addition, at hCB2R [3] (setting [8]), the “cAMP Inhibition Emax (% CP55,940) ± S.E.M” value is recorded as 78 ± 11 % CP55,940. Further, at hCB2R [3] (CHO cells expressing human CB2R, 10 μM FSK, 90 min, read-out: cAMP Inhibition EC50 (95% C.I.)), the 50% effective concentration (EC50) came to 760 nM. In addition, the “displacement of [3H]CP55,940 at hCB1R” value on hCB1R is “not able to displace [^3H]CP55,940”. Besides, the inhibition constant Ki at hCB1R (read-out: CB1R Ki) is more than 10000 nM. Besides, on hCB2R [4], the Ki was 45 nM and the “displacement of [3H]CP55,940 at hCB2R” value is “fully displaced [^3H]CP55,940”.

As for `CCCC(C)(C)c1ccc2c(c1)OC(C)(C)[C@@H]1CC=C(C)C[C@@H]21` [JWH-133], in the data set with SH-SY5Y cells [5], the “effect on SH-SY5Y cell proliferation” value is “inhibits SH-SY5Y cell proliferation”.

At hCB2R [1], `CC1CCC(NC(=O)c2cc3cccnc3n(CCCCCO)c2=O)CC1` (stereo not drawn) [LV62, reference compound] gave an EC50 of 63 nM. Further, the “β-arrestin2 recruitment” value at hCB2R [1] (CHO cells expressing hCB2R, 90 min) is given as “produced an increase in the β-arrestin2 recruitment”. Further, at hCB2R [1] (setting [7]), the “β-Arrestin2 Recruitment Emax (% CP55,940) ± S.E.M” value is recorded as 65 ± 1.4 % CP55,940. For the same compound, in the data set on SH-SY5Y cells [2], the “effect on cell viability” value is given as “inhibited cell viability” and the IC50 amounted to 38100 nM. Also, on hCB2R [3], the midpoint of the response, the EC50, lay at 34 nM. Further, the “cAMP Inhibition Emax (% CP55,940) ± S.E.M” value at hCB2R [3] (setting [8]) is recorded as 110 ± 8.8 % CP55,940. Further, on hCB1R, the inhibition constant (Ki) was more than 10000 nM and the “displacement of [3H]CP55,940 at hCB1R” value was “not able to displace [^3H]CP55,940”. On hCB2R [4], this compound yielded an inhibition constant (Ki) of 37 nM. The “reversion in cell viability in the presence of SR144528, agonist concentration” value in the data set with SH-SY5Y cells [6] is “only at 40”.
